In patent US11191746B2, “Composition for inhibiting a growth of cancer stem cells comprising ciclesonide” (JEJU NATIONAL UNIVERSITY INDUSTRY-ACADEMIC COOPERATION …, priority 2016, dated 2021):

Experiments:
MCF-7 cells [1] = test: ALDEFLUOR analysis, breast cancer cells; format: cell-based, human; settings: 24 hours
Procedure: An ALDEFLUOR analysis system provides a novel approach to the identification, evaluation, and isolation of CSCs based on the activity of aldehyde dehydrogenase (ALDH). BODIPY-aminoacetaldehyde as an active reagent was added to breast cancer cells or lung cancer cells, and converted into fluorescent BODIPY-aminoacetate by ALDH. Diethylaminobenzaldehyde (DEAB), which is an ALDH inhibitor, was used as a negative control. MCF-7 cells or A549 cells were treated with 10 μM or 20 μM ciclesonide for 24 hours, and the proportion of ALDH-positive cells was analyzed by ALDEFLUOR assay. ALDH-positive and negative cells were sorted by C6 Accuri flow cytometry (BD Bioscience).

A549 cells [2] = test: Scratch migration analysis; format: cell-based, human; settings: A549, wound healing at 18 hours
Procedure: (§1) MDA-MB-231 cells or A549 cells were inoculated into a 6-well plate and grown to 90% confluency. A scratch was made on the cell layer using a sterile white micropipette tip. After washing with DMEM medium, the breast cancer cells or lung cancer cells were treated with ciclesonide or DMSO. At 18 hours, wounded areas were photographed using an optical microscope at a magnification of ×40.

MDA-MB-231 cells [3] = test: Scratch migration analysis; format: cell-based, human; settings: MDA-MB-231, wound healing at 18 hours
Procedure: as §1

tumorspheres = test: Tumorsphere proliferation (cell counting); format: cell-based, human; settings: tumorspheres treated 2 days, single cells replated and counted on days 1 to 3
Procedure: FIG. 11B illustrates the effect of ciclesonide on tumorsphere formation wherein ciclesonide inhibits the growth of tumorspheres, tumorspheres having been treated with ciclesonide or DMSO for 2 days were separated into single cells and plated in 6 cm dishes at the same density, 24 hours after plating, the cells were counted, on days 1, 2, and 3, the cells were counted three times, and plotted as mean values, and the data was expressed as the mean±SD for the three independent experimental results. *p<0.05 vs. DMSO-treated control; and […]

Snail = test: Real-time PCR of CSC markers in tumorspheres; format: cell-based, human; settings: RT-PCR, vs group not treated
Procedure: (§2) The levels of transcripts were measured with a One Step SYBR PrimeScript RT-PCR kit (Takara, Tokyo, Japan) using SYBR green as a double-stranded DNA-specific dye in accordance with the manufacturer's protocol. One-step RT-PCR was performed on 1 μg of total RNA, 10 μl of 2× One Step SYBR RT-PCR Buffer IV, and 1 μl of PrimeScript 1 step Enzyme Mix II using PCR forward and reverse primers of each of CD44, NANOG, OCT4, C-myc, Sox2, Snail, and β-actin at a final volume of 20 μl per reaction.
(§3) The relative expression level of mRNA of the target gene was calculated using a comparative CT method. At least three independent PCR procedures were performed in accordance with statistical analysis. PCR products were normalized with the […] gene as an internal control.

Nanog = test: Real-time PCR of CSC markers in tumorspheres; format: cell-based, human; settings: RT-PCR, vs group not treated
Procedure: as §2, §3

Sox2 = test: Real-time PCR of CSC markers in tumorspheres; format: cell-based, human; settings: RT-PCR, vs group not treated
Procedure: as §2, §3

C-myc = test: Real-time PCR of CSC markers in tumorspheres; format: cell-based, human; settings: RT-PCR, vs group not treated
Procedure: as §2, §3

[4] = test system: A549 cell-derived tumorspheres; test: Tumorsphere formation; format: cell-based, human; settings: A549 primary tumorspheres
Procedure: Human lung cancer cells, A549, were cultured under the same culture conditions as those for the breast cancer cells of Example 2-1. To establish primary tumorspheres, single cell-suspended A549 cells were inoculated into ultra-low attachment 6-well plates containing 2 ml of Cancer Stem Premium medium (ProMab Biotechnologies Inc, Richmond, Calif., USA) at a density of 5×10^4 cells/well. The cells were incubated in a 5% CO2 incubator at 37° C. for 10 days.
Lung cancer tumorspheres were counted in the same manner as in Example 3-1, and for the analysis of tumorsphere formation, tumorsphere formation efficiency (TFE, %) was determined by the following equation: TFE (%)=number of tumorspheres per well/total number of plated cells per well×100.

A549 cells [5] = test: Lung cancer cell proliferation assay (MTS); format: cell-based, human; settings: A549, 48 hours after treatment
Procedure: (§4) The proliferation rates of MCF-7 cells and MDA-MB-231 cells were measured using a CellTiter 96® aqueous one solution cell proliferation kit. The MCF-7 cells or the MDA-MB-231 cells were cultured in a 96-well plate for 48 hours in the presence of ciclesonide at concentrations of 0 μM, 5 μM, 10 μM, 20 μM, 40 μM, and 80 μM. In accordance with the manufacturer's protocol, absorbance at 490 nm was determined using a 96-well plate reader (Dynex Revelation, Dynex Ltd., Billingshurst, UK). Respective data was determined by measuring three sets.
An experiment was performed in the same manner as in Example 10-1, except that A549 cells were used as lung cancer cells and treated with ciclesonide at concentrations of 0 μM, 10 μM, 20 μM, 40 μM, 80 μM, and 100 μM.

A549 cells [6] = test: Caspase-3/7 analysis (Caspase-Glo 3/7); format: cell-based, human; settings: A549, 80 μM, 24 hours
Procedure: (§5) Breast cancer cells and lung cancer cells were treated with ciclesonide at different concentrations for 24 hours. Caspase-3/7 activity was measured in accordance with the manufacturer's protocol for the Caspase-Glo 3/7 kit (Promega, Wisconsin, USA). 100 μl of a Caspase-Glo 3/7 reagent was added to a 96-well plate where cancer cells were cultured. The plate was covered with a plate sealer, followed by culture at room temperature for 1 hour, and measured using a plate-reading luminometer, GloMax® Explorer (Promega, Wisconsin, USA).

MDA-MB-231 cells [7] = test: Caspase-3/7 analysis (Caspase-Glo 3/7); format: cell-based, human; settings: MDA-MB-231, 40 μM and 80 μM, 24 hours
Procedure: as §5

MDA-MB-231 cells [8] = test: Breast cancer cell proliferation assay (MTS); format: cell-based, human; settings: MDA-MB-231, 48 hours after treatment
Procedure: as §4

MCF-7 cells [9] = test: Breast cancer cell proliferation assay (MTS); format: cell-based, human; settings: MCF-7, 48 hours after treatment
Procedure: as §4

IL-8 = test: Human inflammatory cytokine assay (CBA), mammosphere culture solution; format: cell-based; settings: MDA-MB-231 mammosphere culture solution
Procedure: (§6) Mixed capture beads were vortexed and 50 μl of beads were added to assay tubes. 50 μl of human inflammatory cytokine standard and the cultured tumorsphere solution were added to the assay tubes, and then mixed with a cytokine PE solution. After 3 hours, the mixed solution was washed and analyzed by flow cytometry (Accuri C6, BD, San Diego, Calif., USA).

IL-6 = test: as above; format: cell-based; settings: MDA-MB-231 mammosphere culture solution
Procedure: as §6

Q: `CC(C)C(=O)OCC(=O)[C@@]12O[C@H](C3CCCCC3)O[C@@H]1C[C@H]1[C@@H]3CCC4=CC(=O)C=C[C@]4(C)[C@H]3[C@@H](O)C[C@@]12C` [ciclesonide] was tested. Which “proportion of ALDH-positive breast cancer cells” value (MCF-7 cells [1]) did it give?
A: Its value is “reduced”.

Q: And the migration (A549 cells [2])?
A: Its migration is “inhibited”.

Q: What about the migration (MDA-MB-231 cells [3]) of the same compound?
A: The migration was “inhibited”.

Q: And the “growth of tumorspheres (number of survived cancer cells)” value (tumorspheres)?
A: Its value is “inhibited”.

Q: What about the “expression of Snail” value (Snail) of the same compound?
A: The value was “reduced”.

Q: What about the “expression of Nanog” value (Nanog) of the same compound?
A: Its value is “reduced”.

Q: What about the “expression of Sox2” value (Sox2) of the same compound?
A: Its value is “reduced”.

Q: What about the “expression of C-myc” value (C-myc) of the same compound?
A: Its value is “reduced”.

Q: What about the “size of the tumorspheres” value [4] of the same compound?
A: Its value is “significantly reduced”.

Q: And the “reduction of the number of tumorspheres” value ([4]; 5 μM and 10 μM)?
A: Its value is 90%.

Q: What about the “concentration at which growth of the cell line was inhibited in a concentration-dependent manner” value (A549 cells [5]) of the same compound?
A: Its value is at least 40 µM.

Q: What about the “caspase 3/7 activity” value (A549 cells [6]) of the same compound?
A: Its value is “induced”.

Q: And the “caspase 3/7 activity” value (MDA-MB-231 cells [7])?
A: Its value is “induced”.

Q: And the “concentration at which growth of the cell line was inhibited in a concentration-dependent manner” value (MDA-MB-231 cells [8])?
A: The value was at least 10 µM.

Q: And the “concentration at which growth of the cell line was inhibited in a concentration-dependent manner” value (MCF-7 cells [9])?
A: Its value is at least 10 µM.

Q: What about the “production level of secreted IL-8” value (IL-8) of the same compound?
A: The value was “reduced”.

Q: And the “production level of secreted IL-6” value (IL-6)?
A: The value was “reduced”.
